From ChEMBL document CHEMBL1122982, “Conformational factors in cardiac glycoside activity” (1985)

organism: Cavia porcellus; experiment: Relative […] activity evaluated in guinea pig left atria.; type: functional

SMILES | Relative ionotropic activity
C[C@H]1O[C@H]2O[C@@H]3C[C@@H]4CC[C@@H]5[C@H](CC[C@]6(C)[C@@H](C7=CC(=O)OC7)CC[C@]56O)[C@@]4(C)C[C@H]3O[C@@]2(O)[C@@H](O)[C@H]1O | 1
C[C@@H]1O[C@@H](O[C@H]2CC[C@@]3(C)[C@@H](CC[C@@H]4[C@@H]3CC[C@]3(C)[C@@H](C5=CC(=O)OC5)CC[C@@]43O)C2)C[C@H](O)[C@@H]1O | 15
C[C@]12CC[C@H](O)C[C@H]1CC[C@@H]1[C@@H]2CC[C@]2(C)[C@@H](C3=CC(=O)OC3)CC[C@]12O (stereo in doubt) [DIGITOXIGENIN] | 1
C[C@]12CC[C@H](O)C[C@H]1CC[C@@H]1[C@@H]2CC[C@]2(C)[C@@H](C3=CC(=O)OC3)CC[C@]12O (stereo in doubt; V) [DIGITOXIGENIN] | 1.2
C[C@@H]1O[C@@H](O[C@H]2CC[C@@]3(C)[C@H](CC[C@@H]4[C@@H]3CC[C@]3(C)[C@@H](C5=CC(=O)OC5)CC[C@]43O)C2)[C@H](O)[C@H](O)[C@H]1O (stereo in doubt; X) | 3
C[C@@H]1O[C@@H](O[C@H]2CC[C@@]3(C)[C@H](CC[C@@H]4[C@@H]3CC[C@]3(C)[C@@H](C5=CC(=O)OC5)CC[C@]43O)C2)[C@H](O)[C@H](O)[C@H]1O (stereo in doubt; form 1) | 22
C[C@@H]1C[C@H](O)[C@]2(O)O[C@@H]3C[C@@]4(C)[C@@H](CC[C@@H]5[C@@H]4CC[C@]4(C)[C@@H](C6=CC(=O)OC6)CC[C@]54O)C[C@H]3O[C@@H]2O1 (stereo in doubt; form 1) [Gomphoside] | 23
C[C@@H]1O[C@@H](O[C@H]2CC[C@@]3(C)[C@H](CC[C@@H]4[C@@H]3CC[C@]3(C)[C@@H](C5=CC(=O)OC5)CC[C@]43O)C2)[C@H](O)[C@H](O)[C@H]1O (stereo in doubt; form 2) | 9
C[C@@H]1C[C@H](O)[C@]2(O)O[C@@H]3C[C@@]4(C)[C@@H](CC[C@@H]5[C@@H]4CC[C@]4(C)[C@@H](C6=CC(=O)OC6)CC[C@]54O)C[C@H]3O[C@@H]2O1 (stereo in doubt; form 2) [Gomphoside] | 0.2
C[C@@H]1CC(=O)[C@]2(O)O[C@@H]3C[C@@]4(C)[C@@H](CC[C@@H]5[C@@H]4CC[C@]4(C)[C@@H](C6=CC(=O)OC6)CC[C@]54O)C[C@H]3O[C@@H]2O1 [Didehydro Gomphoside] | 2.5
